pIC50: −log10 of the molar value.

For orientation: pIC50 means −log10 of the IC50, conventionally taken in molar units. A higher pIC50 goes with a small IC50.

The assay addresses T1, MAGL (Homo sapiens, UniProt Q99685).
T1 sequence (Q99685 1-303): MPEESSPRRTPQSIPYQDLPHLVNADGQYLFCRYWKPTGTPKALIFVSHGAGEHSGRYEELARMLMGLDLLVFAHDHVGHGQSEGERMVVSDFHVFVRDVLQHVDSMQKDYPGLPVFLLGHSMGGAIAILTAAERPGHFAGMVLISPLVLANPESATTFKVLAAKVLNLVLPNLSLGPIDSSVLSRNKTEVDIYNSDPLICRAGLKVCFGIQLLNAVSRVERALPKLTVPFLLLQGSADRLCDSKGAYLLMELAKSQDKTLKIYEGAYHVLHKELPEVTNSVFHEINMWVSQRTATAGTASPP
The assay is described as follows: 2-AG assay (MAGL inhibitory activity, hydrolysis of 2-arachidonoylglycerol followed by mass spectrometry). Format: biochemical. As to conditions: 50 pM MAGL, 8 μM 2-arachidonoylglycerol, 15 min preincubation, 30 min incubation at RT. The procedure: Compounds were profiled for MAGL inhibitory activity by determining the enzymatic activity by following the hydrolysis of the natural substrate 2-arachidonoylglycerol (2-AG) resulting in arachidonic acid, which can be followed by mass spectrometry. This assay is hereinafter abbreviated “2-AG assay”.
The 2-AG assay was carried out in 384 well assay plates (PP, Greiner Cat #784201) in a total volume of 20 μL. Compound dilutions were made in 100% DMSO (VWR Chemicals 23500.297) in a polypropylene plate in 3-fold dilution steps to give a final concentration range in the assay from 12.5 μM to 0.8 pM. 0.25 μL compound dilutions (100% DMSO) were added to 9 μL MAGL in assay buffer (50 mM TRIS (GIBCO, 15567-027), 1 mM EDTA (Fluka, 03690-100 mL), 0.01% (v/v) Tween. After shaking, the plate was incubated for 15 min at RT. To start the reaction, 10 μL 2-arachidonoylglycerol in assay buffer was added. The final concentrations in the assay was 50 pM MAGL and 8 μM 2-arachidonoylglyerol. After shaking and 30 min incubation at RT, the reaction was quenched by the addition of […] of ACN containing 4 μM of d8-arachidonic acid. The amount of arachidonic acid was traced by an online SPE system (Agilent Rapidfire) coupled to a triple quadrupole mass spectrometer (Agilent 6460). A C18 SPE cartridge (G9205A) was used in an ACN/water liquid setup. The mass spectrometer was operated in negative electrospray mode following the mass transitions 303.1→259.1 for arachidonic acid and 311.1→267.0 for d8-arachidonic acid. The activity of the compounds was calculated based on the ratio of intensities [arachidonic acid/d8-arachidonic acid].
Turning to `Cc1c[nH]nc1-c1cccc(C(=O)N2CCN3C[C@@](O)(c4ccc(Cl)cc4)CC[C@@H]3C2)c1F` [Example 15, [(7S,9aR)-7-(4-chlorophenyl)-7-hydroxy-3,4,6,8,9,9a-hexahydro-1H-pyrido[1,2-a]pyrazin-2-yl]-[2-fluoro-3-(4-methl1-1H-pyrazol-3-yl)phenyl]methanone], the pIC50 was 6.77.

`Cc1cn[nH]c1-c1cccc(C(=O)N2CCN3C[C@@](O)(c4ccc(Cl)cc4)CC[C@@H]3C2)c1Cl` [Example 16, [(7S,9aR)-7-(4-chlorophenyl)-7-hydroxy-3,4,6,8,9,9a-hexahydro-1H-pyrido[1,2-a]pyrazin-2-yl]-[2-chloro-3-(4-methyl-1H-pyrazol-5-yl)phenyl]methanone] had a pIC50 of 7.99.

Regarding `Cc1c[nH]nc1-c1cccc(C(=O)N2CCN3C[C@@](O)(c4ccc(Cl)cc4)CC[C@@H]3C2)c1` [Example 17], the pIC50 was 6.59.

As to `COc1cccc(C(=O)N2CCN3C[C@@](O)(c4ccc(C(F)(F)F)cn4)CC[C@@H]3C2)c1Cl` [Example 18], the pIC50 is 7.01.

The molecule `COc1cccc(C(=O)N2CCN3C[C@](O)(c4ccc(C(F)(F)F)cn4)CC[C@H]3C2)c1Cl` [Example 19, [(7S,9aS)-7-hydroxy-7-[5-(trifluoromethyl)pyridin-2-yl]-3,4,6,8,9,9a-hexahydro-1H-pyrido[1,2-a]pyrazin-2-yl]-(2-chloro-3-methoxyphenyl)methanone] gave a pIC50 of 6.82.

As for `O=C(c1cccc(-c2ccn[nH]2)c1Cl)N1CCN2C[C@@](O)(c3ccc(C(F)(F)F)cn3)CC[C@@H]2C1` [Example 20, [(7R,9aR)-7-hydroxy-7-[5-(trifluoromethyl)pyridin-2-yl]-3,4,6,8,9,9a-hexahydro-1H-pyrido[1,2-a]pyrazin-2-yl]-[2-chloro-3-(1H-pyrazol-5-yl)phenyl]methanone], the pIC50 is 7.94.

`O=C(c1cccc(N2CCOCC2)c1F)N1CCN2C[C@@](O)(c3ccc(Cl)cc3)CC[C@@H]2C1` [Example 21, [(7S,9aR)-7-(4-chlorophenyl)-7-hydroxy-3,4,6,8,9,9a-hexahydro-1H-pyrido[1,2-a]pyrazin-2-yl]-(2-fluoro-3-morpholino-phenyl)methanone] gave a pIC50 of 6.45.

`CC(C)(C)OC(=O)N1CCN(c2cccc(C(=O)N3CCN4C[C@@](O)(c5ccc(Cl)cc5)CC[C@@H]4C3)c2F)CC1` [Example 22, tert-butyl 4-[3-[(7S,9aR)-7-(4-chlorophenyl)-7-hydroxy-3,4,6,8,9,9a-hexahydro-1H-pyrido[1,2-a]pyrazine-2-carbonyl]-2-fluorophenyl]piperazine-1-carboxylate]: the pIC50 was 6.08.

`O=C(c1cccc(N2CCNCC2)c1F)N1CCN2C[C@@](O)(c3ccc(Cl)cc3)CC[C@@H]2C1` [Example 23, [(7S,9aR)-7-(4-chlorophenyl)-7-hydroxy-3,4,6,8,9,9a-hexahydro-1H-pyrido[1,2-a]pyrazin-2-yl]-(2-fluoro-3-piperazin-1-ylphenyl)methanone] showed a pIC50 of 6.18.

In turn, `O=C(c1cccc(/C=C\c2ccccc2)c1Br)N1CCN2C[C@@H](c3ccc(Cl)cc3)CC[C@@H]2C1` [Example 27, [(7R,9aR)-7-(4-chlorophenyl)-1,3,4,6,7,8,9,9a-octahydropyrido[1,2-a]pyrazin-2-yl]-[2-bromo-3-[(Z)-2-phenylethenyl]phenyl]methanone] gave a pIC50 of 7.98.

Turning to `O=C(c1cccc(/C=C/c2ccccc2)c1Br)N1CCN2C[C@@H](c3ccc(Cl)cc3)CC[C@@H]2C1` [Example 28, [(7R,9aR)-7-(4-chlorophenyl)-1,3,4,6,7,8,9,9a-octahydropyrido[1,2-a]pyrazin-2-yl]-[2-bromo-3-[(E)-2-phenylethenyl]phenyl]methanone], the pIC50 is 6.77.

Consider `CC(C)(C)OC(=O)Nc1ccc(/C=C/c2cccc(C(=O)N3CCN4C[C@@H](c5ccc(Cl)cc5)CC[C@@H]4C3)c2Br)cc1` [Example 29], for which the pIC50 is 8.12.

As for `C=CC(=O)Nc1ccc(/C=C/c2cccc(C(=O)N3CCN4C[C@@H](c5ccc(Cl)cc5)CC[C@@H]4C3)c2Br)cc1` [Example 30, N-[4-[(E)-2-[3-[(7R,9aR)-7-(4-chlorophenyl)-1,3,4,6,7,8,9,9a-octahydropyrido[1,2-a]pyrazine-2-carbonyl]-2-bromophenyl]ethenyl]phenyl]prop-2-enamide], the pIC50 was 7.73.

In the case of `O=C(c1cccc(N2CC(O)C2)c1Cl)N1CCN2C[C@@](O)(c3ccc(C(F)(F)F)cn3)CC[C@@H]2C1` [Example 32, [(7R,9aR)-7-hydroxy-7-[5-(trifluoromethyl)pyridin-2-yl]-3,4,6,8,9,9a-hexahydro-1H-pyrido[1,2-a]pyrazin-2-yl]-[2-chloro-3-(3-hydroxyazetidin-1-yl)phenyl]methanone], the pIC50 was 7.14.

`O=C(c1cccc(O)c1Cl)N1CCN2C[C@@](O)(c3ccc(Cl)cc3)CC[C@@H]2C1` [Example 33, [(7S,9aR)-7-(4-chlorophenyl)-7-hydroxy-3,4,6,8,9,9a-hexahydro-1H-pyrido[1,2-a]pyrazin-2-yl]-(2-chloro-3-hydroxyphenyl)methanone]: the pIC50 is 6.80.

In turn, `O=C1CN(c2cccc(C(=O)N3CCN4C[C@@](O)(c5ccc(Cl)cc5)CC[C@@H]4C3)c2F)CCN1` [Example 34, 4-(3-((7S,9aR)-7-(4-chlorophenyl)-7-hydroxyoctahydro-2H-pyrido[1,2-a]pyrazine-2-carbonyl)-2-fluorophenyl)piperazin-2-one] showed a pIC50 of 6.84.

The molecule `O=C1CN(c2cccc(C(=O)N3CCN4C[C@@](O)(c5ccc(Cl)cc5)CC[C@@H]4C3)c2Cl)CCN1` [Example 35, 4-[3-[(7S,9aR)-7-(4-chlorophenyl)-7-hydroxy-3,4,6,8,9,9a-hexahydro-1H-pyrido[1,2-a]pyrazine-2-carbonyl]-2-chlorophenyl]piperazin-2-one] had a pIC50 of 7.07.

Regarding `O=C(c1cccc(N2CCC23COC3)c1Cl)N1CCN2C[C@@](O)(c3ccc(Cl)cc3)CC[C@@H]2C1` [Example 36, [(7S,9aR)-7-(4-chlorophenyl)-7-hydroxy-3,4,6,8,9,9a-hexahydro-1H-pyrido[1,2-a]pyrazin-2-yl]-[2-chloro-3-(6-oxa-1-azaspiro[3.3]heptan-1-yl)phenyl]methanone], the pIC50 was 7.12.

The molecule `O=C(c1cccc(N2CC(O)C2)c1F)N1CCN2C[C@@](O)(c3ccc(F)c(Cl)c3)CC[C@@H]2C1` [Example 39, [(7S,9aR)-7-(3-chloro-4-fluorophenyl)-7-hydroxy-3,4,6,8,9,9a-hexahydro-1H-pyrido[1,2-a]pyrazin-2-yl]-[2-fluoro-3-(3-hydroxyazetidin-1-yl)phenyl]methanone] had a pIC50 of 7.42.

In turn, `O=C(c1cccc(N2CC(O)C2)c1Cl)N1CCN2C[C@@](O)(c3ccc(F)c(Cl)c3)CC[C@@H]2C1` [Example 40] showed a pIC50 of 8.16.

Turning to `O=C(c1cccc(F)c1Cl)N1CCN2C[C@@](O)(c3ccc(C(F)(F)F)cn3)CC[C@@H]2C1` [Example 41, [(7R,9aR)-7-hydroxy-7-[5-(trifluoromethyl)pyridin-2-yl]-3,4,6,8,9,9a-hexahydro-1H-pyrido[1,2-a]pyrazin-2-yl]-(2-chloro-3-fluorophenyl)methanone], the pIC50 was 6.41.

As to `O=C(c1cccc(F)c1Cl)N1CCN2C[C@](O)(c3ccc(C(F)(F)F)cn3)CC[C@H]2C1` [Example 42, [(7S,9aS)-7-hydroxy-7-[5-(trifluoromethyl)pyridin-2-yl]-3,4,6,8,9,9a-hexahydro-1H-pyrido[1,2-a]pyrazin-2-yl]-(2-chloro-3-fluorophenyl)methanone], the negative logarithm of the IC50 (pIC50) is 5.32.

Regarding `O=C(c1cccc(N2CC[C@H](O)C2)c1Cl)N1CCN2C[C@@](O)(c3ccc(F)c(Cl)c3)CC[C@@H]2C1` [Example 43, [(7S,9aR)-7-(3-chloro-4-fluorophenyl)-7-hydroxy-3,4,6,8,9,9a-hexahydro-1H-pyrido[1,2-a]pyrazin-2-yl]-[2-chloro-3-[(3S)-3-hydroxypyrrolidin-1-yl]phenyl]methanone], the pIC50 was 7.68.

As to `O=C(c1cccc(N2CC[C@@H](O)C2)c1Cl)N1CCN2C[C@@](O)(c3ccc(F)c(Cl)c3)CC[C@@H]2C1` [Example 44, [(7S,9aR)-7-(3-chloro-4-fluorophenyl)-7-hydroxy-3,4,6,8,9,9a-hexahydro-1H-pyrido[1,2-a]pyrazin-2-yl]-[2-chloro-3-[(3R)-3-hydroxypyrrolidin-1-yl]phenyl]methanone], the pIC50 was 7.81.

Source of the values: US12637454B2, “Heterocyclic monoacylglycerol lipase (MAGL) inhibitors” (Hoffmann-La Roche Inc., priority 2019, dated 2026).
